The results in this text go back to patent US12023319B2, “Carboxylic acid aromatic amides” (priority 2016, dated 2024).

The test system of the assay is Bradykinin B1 agonist-induced secretion of IL-8. Nature of the assay: Bradykinin B1 agonist-induced secretion of IL-8 in human IMR-90 cells. The assay is classed as cell-based. The note with it: 30 min compound, then 0.1 μM Lys-[Des-Arg9]Bradykinin and 0.1 μM Sar-[D-Phe8]-des-Arg9-Bradykinin for 5 hours. The text has this: 2. Inhibitory Activity on Bradykinin B1 Agonist-Induced Secretion of IL-6 and IL-8 in Human IMR-90 Cells
The effect of the Compound Examples on secretion of the cytokine IL-6 and IL-8 has been investigated in the human foetal lung fibroblast IMR-90 cell line. Here the induction of the cytokine secretion was induced by the Bradykinin B1 agonists Lys-[Des-Arg9]Bradykinin (CAS 71800-36-7, Tocris Bioscience) and Sar-[D-Phe8]-des-Arg9-Bradykinin (CAS 126959-88-4, Tocris Bioscience) leading to the activation of the Bradykinin B1-driven signalling pathway. The inhibitory activity of the tested Compound Examples on Bradykinin B1 agonist-induced secretion of IL-6 and IL-8 is indicative for the compounds' prominent anti-inflammatory mode of action in kinin driven inflammation.
IMR-90 cells were cultured in Eagle's Minimum Essential Medium (EMEM) containing 2 mM L-glutamine, 1 g/L glucose, 1.5 g/L NaHCO3, 1 mM sodium pyruvate and non-essential amino acids (ATCC, 30-2003™) supplemented with 10% FBS (Biochrom, S0615) and 50 U/mL Penicillin, 50 μg/mL Streptomycin (PAA, P11-010). The assay was performed in EMEM and a cell density of […] IMR-90 cells/96-well. The Compound Examples have been serial diluted in 100% DMSO and evaluated at 8 different concentrations within the range of 3 nM and 10 μM and a final DMSO concentration of 0.4%. The IMR-90 cells have been incubated with the respective concentration of the compound for 30 min. The enhanced secretion of IL-6 and IL-8 was induced by the stimulation of these cells with 0.1 μM Lys-[Des-Arg9]Bradykinin (Tocris, catalogue no. 3225) and 0.1 μM Sar-[D-Phe8]-des-Arg9-Bradykinin (Tocris, catalogue no. 3230) for 5 hours at 37° C. and 5% CO2. Further, cells have been treated with Lys-[Des-Arg9]Bradykinin and Sar[D-Phe8]-des-Arg9-Bradykinin as neutral control and with 0.1% DMSO as inhibitor control. The amount of IL-6 and IL-8 in the supernatant was determined using the Human ProInflammatory Panel II (4-Plex) (MSD, K15025B) according to manufacturer's instruction. Briefly, supernatants were added onto assay plates and incubated at room temperature for 1-2 h with vigorous shaking at 600 rpm. Detection antibodies were then added onto the supernatants and incubated at room temperature for an additional 1-2 h with vigorous shaking at 600 rpm. Plates were washed three times with phosphate-buffered saline (PBS; 137 mM NaCl, 2.7 mM KC1, 6.5 mM Na2HP04, 1.7 mM KH2P04) containing 0.05% Tween-20 (Bio-Rad, 161-0781) and electrochemiluminescence detected using the MSD Sector Imager 6000 plate reader. The cell viability was measured using the CellTiter-Glo Luminescent Assay (Promega, G7571) following the manufacturers protocol. Briefly, the CellTiter-Glo Reagent was diluted with PBS (1:1) and added directly to cells. After incubation and shaking for 10 minutes luminescent signal was measured which is proportional to the amount of ATP present.
The effect of the compound on the amount of secreted cytokine has been calculated as 100/(measured cytokine concentration of neutral control-measured cytokine concentration of inhibitor control)*(measured cytokine concentration of compound dose-measured cytokine concentration of inhibitor control). IC50 values are determined using 4-parameter-fit.
The Compound Examples were tested in triplicates per plate and the inhibitory activity was determined as the relation between neutral and inhibitor control in percent. IC50 values were calculated using the 4-parameter logistic model.

`O=C(O)c1cc(NC(=O)C2(c3ccc(C(F)(F)F)cc3F)CC2)ccc1-c1cc2ccccc2s1` [Example 1, 2-(1-Benzothiophen-2-yl)-5-[({1-[2-fluoro-4-(trifluoromethyl)phenyl]cyclopropyl}carbonyl)amino]benzoic acid]: the IC50 (as a rule, the midpoint of a concentration-inhibition curve) was found to be 245 nM. In turn, `CCC(F)(F)c1ccc(-c2ccc(NC(=O)C3(c4ccc(C(F)(F)F)cc4F)CC3)cc2C(=O)O)cn1` [Example 2, 2-[6-(1,1-Difluoropropyl)pyridin-3-yl]-5-[({1-[2-fluoro-4-(trifluoromethyl)-phenyl]cyclopropyl}carbonyl)amino]benzoic acid] yielded an IC50 of 303 nM. Take `O=C(O)c1cc(NC(=O)C2(c3ccc(C(F)(F)F)cc3F)CC2)ccc1-c1cnn(C2CCC2)c1` [Example 3, 2-(1-Cyclobutyl-1H-pyrazol-4-yl)-5-[({1-[2-fluoro-4-(trifluoromethyl)phenyl]cyclopropyl}carbonyl)amino]benzoic acid]: the IC50 amounted to 53 nM.

The compound `O=C(O)c1cc(NC(=O)C2(c3ccc(OC(F)(F)F)cc3F)CC2)ccc1-c1ccc(C(F)F)nc1` [Example 5, 2-[6-(Difluoromethyl)pyridin-3-yl]-5-[({1-[2-fluoro-4-(trifluoromethoxy)phenyl]cyclopropyl}carbonyl)amino]benzoic acid] displayed an IC50 of 483 nM. `O=C(O)c1cc(NC(=O)C2(c3ccc(C(F)(F)F)cc3F)CC2)ccc1-c1ccc(C(F)(F)F)nc1` [Example 6, 5-[({1-[2-Fluoro-4-(trifluoromethyl)phenyl]cyclopropyl}carbonyl)amino]-2-[6-(trifluoromethyl)pyridin-3-yl]benzoic acid]: the IC50 was found to be 205 nM.

Compound `O=C(O)c1cc(NC(=O)C2(c3ccc(C(F)(F)F)cc3F)CC2)cc(F)c1-c1ccc(C(F)(F)F)nc1` [Example 29, 3-Fluoro-5-[({1-[2-fluoro-4-(trifluoromethyl)phenyl]cyclopropyl}carbonyl)amino]-2-[6-(trifluoromethyl)pyridin-3-yl]benzoic acid] came in with an IC50 of 489 nM. In the case of `O=C(O)c1cc(NC(=O)C2(c3ccc(C(F)(F)F)cc3F)CC2)cc(F)c1-c1cnn(C2CCC2)c1` [Example 42, 2-(1-Cyclobutyl-1H-pyrazol-4-yl)-3-fluoro-5-[({1-[2-fluoro-4-(trifluoromethyl)phenyl]cyclopropyl}carbonyl)amino]benzoic acid] it was 85 nM.
